Type in all cases: biochemical
One assay addresses RET-M918T (Homo sapiens, UniProt P07949, M918T). The assay can be described thus: RET inhibition experiment (HTRF KinEASE-TK kit), mutant RET-M918T. Particulars: for inhibition at 0.1 µM: read-out: Inhibition rate on RET-M918T. The method, then:
(§1) Experimental method: […] After incubation at room temperature for 40 min, TK antibody-cryptate and streptavidin-XL665 were added, and the test was performed after incubation at room temperature for 45 min. With the solvent group (DMSO) as the negative control and the buffer group (without RET enzyme) as the blank control, the relative inhibitory activity percentages (i.e., inhibition rates) of different concentrations of the compounds were computed as per the following formula: […] The relative inhibitory activity percentages of different concentrations of the compounds were plotted with respect to the compound concentrations, and the curve was fitted according to a four-parameter model to compute the IC50 value as per the following formula: y=min+(max-min)/(1+(x/IC50)^(-Hillslope)) where y is the relative inhibitory activity percentage, max is the maximum value of the fitted curve, min is the minimum value of the fitted curve, x is the logarithmic concentration of the compound, and Hillslope is the slope of the curve.
A general note: In TR-FRET formats the signal depends on donor and acceptor labels being close together.

A further assay deals with RET-V804M (Homo sapiens, UniProt P07949, V804M). The assay can be described thus: RET inhibition experiment (HTRF KinEASE-TK kit), mutant RET-V804M. Particulars: for inhibition at 0.1 µM / inhibition at 0.01 µM: read-out: Inhibition rate on RET-V804M; for inhibition at 0.01 µM: 10 nM (Table 2). In outline: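 Enzyme was pre-incubated with compound at room temperature for 30 min, then substrate and ATP were added for a 40 min reaction. HTRF signal was read after 45 min with TK antibody-cryptate and streptavidin-XL665. IC50 came from a four-parameter fit of percent inhibition against DMSO and no-enzyme controls.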
Chain of RET-V804M (P07949 29-1114 V804M): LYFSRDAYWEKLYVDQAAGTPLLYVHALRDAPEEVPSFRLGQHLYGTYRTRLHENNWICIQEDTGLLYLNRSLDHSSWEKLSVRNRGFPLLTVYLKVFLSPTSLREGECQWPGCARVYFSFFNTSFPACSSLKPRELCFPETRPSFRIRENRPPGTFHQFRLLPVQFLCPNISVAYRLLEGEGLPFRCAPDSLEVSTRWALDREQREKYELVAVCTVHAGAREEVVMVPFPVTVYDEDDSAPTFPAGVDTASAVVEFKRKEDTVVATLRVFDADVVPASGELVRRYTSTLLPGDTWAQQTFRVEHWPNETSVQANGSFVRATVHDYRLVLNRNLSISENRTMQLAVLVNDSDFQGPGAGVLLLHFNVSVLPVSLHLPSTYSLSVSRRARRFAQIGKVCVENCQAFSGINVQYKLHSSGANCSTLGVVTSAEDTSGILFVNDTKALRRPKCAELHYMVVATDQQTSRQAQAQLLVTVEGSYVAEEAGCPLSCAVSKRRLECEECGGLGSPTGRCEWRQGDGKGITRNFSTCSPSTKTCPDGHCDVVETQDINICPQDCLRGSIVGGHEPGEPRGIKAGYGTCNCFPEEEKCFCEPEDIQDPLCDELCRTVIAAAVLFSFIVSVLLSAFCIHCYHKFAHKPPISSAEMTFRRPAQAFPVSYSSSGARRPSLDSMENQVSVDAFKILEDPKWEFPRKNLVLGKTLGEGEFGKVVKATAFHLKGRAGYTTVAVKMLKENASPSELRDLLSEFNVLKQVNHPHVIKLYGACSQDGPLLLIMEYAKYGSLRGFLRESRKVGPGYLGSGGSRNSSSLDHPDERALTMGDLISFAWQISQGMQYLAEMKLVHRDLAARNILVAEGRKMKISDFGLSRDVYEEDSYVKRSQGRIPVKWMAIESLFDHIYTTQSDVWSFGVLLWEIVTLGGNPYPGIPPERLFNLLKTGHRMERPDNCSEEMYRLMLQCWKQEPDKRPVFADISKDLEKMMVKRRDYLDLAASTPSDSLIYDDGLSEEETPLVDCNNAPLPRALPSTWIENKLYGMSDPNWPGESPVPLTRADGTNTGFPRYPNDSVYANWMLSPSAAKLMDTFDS

In a further assay the target is VEGFR2 (Homo sapiens, UniProt P35968). The assay can be described thus: VEGFR2 inhibition experiment (HTRF KinEASE-TK kit). Particulars: read-out: Inhibition rate on VEGFR2; for inhibition at 0.03 µM: 30 nM. The essentials:
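HTRF KinEASE-TK format: enzyme and compound were preincubated 30 min at room temperature, then substrate and ATP added for 40 min, followed by cryptate antibody/streptavidin-XL665 detection for 45 min. Inhibition was normalised to DMSO and no-enzyme controls; IC50 from a four-parameter fit.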

A further assay has as its target T1, RET-CCDC6 (Homo sapiens, UniProt P07949).
T1 construct: CCDC6 fusion partner (Q16204 for human); the other entry of the earlier key: CCDC6 (Q16204, Coiled-coil domain-containing protein 6)
T1 sequence (P07949 with tags, fused parts or gaps): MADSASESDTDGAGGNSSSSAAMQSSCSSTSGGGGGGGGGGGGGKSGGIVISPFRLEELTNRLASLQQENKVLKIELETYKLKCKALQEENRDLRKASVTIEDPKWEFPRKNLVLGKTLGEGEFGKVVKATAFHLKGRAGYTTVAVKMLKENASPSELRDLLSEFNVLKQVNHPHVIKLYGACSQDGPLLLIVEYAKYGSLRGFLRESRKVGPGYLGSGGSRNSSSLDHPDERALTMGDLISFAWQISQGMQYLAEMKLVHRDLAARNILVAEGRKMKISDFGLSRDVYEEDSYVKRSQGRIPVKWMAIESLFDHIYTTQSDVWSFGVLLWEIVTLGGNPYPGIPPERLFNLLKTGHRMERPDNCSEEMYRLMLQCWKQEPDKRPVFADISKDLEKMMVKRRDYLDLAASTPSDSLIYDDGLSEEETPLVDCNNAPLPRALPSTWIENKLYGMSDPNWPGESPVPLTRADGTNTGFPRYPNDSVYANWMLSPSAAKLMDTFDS
Put plainly: RET inhibition experiment (HTRF KinEASE-TK kit), fusion-type RET enzyme. The conditions noted are these: read-out: The IC50 (nM) for inhibiting RET-CCDC6. On the procedure: as §1

Where [1] appears, read: compound concentration 100 nM (Table 1).

Inhibition and IC50 data for 10 compounds are collected here from US20220144847A1, “HETEROCYCLIC COMPOUND, PHARMACEUTICAL COMPOSITION COMPRISING SAME, PREPARATION METHOD THEREFOR, AND USE THEREOF” (Sichuan Kelun-Biotech Biopharmaceutical Co., Ltd., priority 2019, published 2022).

Like-named read-outs stand apart in the source and are kept apart here.

Chain of VEGFR2 (P35968 20-1356, species assumed): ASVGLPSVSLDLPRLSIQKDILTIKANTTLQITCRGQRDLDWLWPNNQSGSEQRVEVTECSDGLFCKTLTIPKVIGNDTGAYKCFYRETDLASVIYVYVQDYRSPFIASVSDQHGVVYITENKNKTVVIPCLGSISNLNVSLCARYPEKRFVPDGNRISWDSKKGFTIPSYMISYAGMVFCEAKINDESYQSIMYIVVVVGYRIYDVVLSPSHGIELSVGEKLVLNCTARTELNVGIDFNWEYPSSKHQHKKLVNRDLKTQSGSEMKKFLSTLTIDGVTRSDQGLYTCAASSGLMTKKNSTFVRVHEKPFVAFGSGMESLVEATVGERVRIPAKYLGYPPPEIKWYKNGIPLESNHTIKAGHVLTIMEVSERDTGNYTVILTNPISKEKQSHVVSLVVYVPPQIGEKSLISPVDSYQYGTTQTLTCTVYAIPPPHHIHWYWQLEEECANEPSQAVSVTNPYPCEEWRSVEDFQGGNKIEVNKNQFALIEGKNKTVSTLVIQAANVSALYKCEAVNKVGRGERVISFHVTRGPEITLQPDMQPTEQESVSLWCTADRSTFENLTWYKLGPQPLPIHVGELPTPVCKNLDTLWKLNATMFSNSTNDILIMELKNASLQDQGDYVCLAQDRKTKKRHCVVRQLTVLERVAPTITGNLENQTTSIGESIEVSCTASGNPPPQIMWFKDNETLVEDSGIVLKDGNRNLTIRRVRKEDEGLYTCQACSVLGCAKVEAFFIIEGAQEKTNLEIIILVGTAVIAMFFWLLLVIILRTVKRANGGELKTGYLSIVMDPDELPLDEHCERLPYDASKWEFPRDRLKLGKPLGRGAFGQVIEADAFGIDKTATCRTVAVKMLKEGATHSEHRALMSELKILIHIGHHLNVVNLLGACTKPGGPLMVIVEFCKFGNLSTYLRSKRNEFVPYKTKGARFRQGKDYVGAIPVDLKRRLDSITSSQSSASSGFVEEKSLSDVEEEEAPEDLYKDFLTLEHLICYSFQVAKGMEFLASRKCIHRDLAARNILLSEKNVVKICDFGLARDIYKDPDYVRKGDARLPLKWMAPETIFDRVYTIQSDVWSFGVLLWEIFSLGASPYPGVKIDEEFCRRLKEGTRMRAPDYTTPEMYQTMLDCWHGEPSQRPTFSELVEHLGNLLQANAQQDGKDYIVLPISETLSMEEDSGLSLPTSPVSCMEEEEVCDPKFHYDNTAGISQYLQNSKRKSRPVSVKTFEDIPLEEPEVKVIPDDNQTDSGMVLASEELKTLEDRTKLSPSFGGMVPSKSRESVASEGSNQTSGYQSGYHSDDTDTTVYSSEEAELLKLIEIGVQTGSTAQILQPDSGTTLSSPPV
Chain of RET-M918T (P07949 29-1114 M918T): as the sequence (P07949 29-1114 V804M) above, with M776V, M890T counted along it

The inhibition is the share of the control response that was lost under treatment. `Cc1cc(Nc2cc(C)[nH]n2)nc(-c2ccc(N3CC4CC(C3)N4Cc3ccccc3)nc2)n1` [Compound 1, 2-(6-(6-benzyl-3,6-diazabicyclo[3.1.1]heptan-3-yl)pyridin-3-yl)-6-methyl-N-(5-methyl-1H-pyrazol-3-yl)pyrimidin-4-amine]: the inhibition at 0.1 µM was determined as 33% at RET-M918T, 86% at RET-V804M and 38% on VEGFR2.
The like results for `COc1ccc(CN2C3CC2CN(c2ccc(-c4nc(C)cc(Nc5cc(C)[nH]n5)n4)cn2)C3)cc1` [Compound 2, 2-(6-(6-(4-methoxybenzyl)-3,6-diazabicyclo[3.1.1]heptan-3-yl)pyridin-3-yl)-6-methyl-N-(5-methyl-1H-pyrazol-3-yl)pyrimidin-4-amine] were, in that order, 51%, 93% and 29%.
Turning to `Cc1cc(Nc2cc(C)[nH]n2)nc(-c2ccc(N3CC4CC(C3)N4Cc3ccc(Cl)nc3)nc2)n1` [Compound 3, 2-(6-(6-((6-chloropyridin-3-yl)methyl)-3,6-diazabicyclo[3.1.1]heptan-3-yl)pyridin-3-yl)-6-methyl-N-(5-methyl-1H-pyrazol-3-yl)pyrimidin-4-amine], the inhibition at 0.1 µM on RET-M918T (setting [1]) came to 34%; at RET-V804M (setting [1]), 86%; at VEGFR2 (100 nM), 14%.
Take `COc1ccc(CN2C3CC2CN(c2ccc(-c4nc(C)cc(Nc5cc(C)[nH]n5)n4)cn2)C3)cn1` [Compound 4, 2-(6-(6-((6-methoxypyridin-3-yl)methyl)-3,6-diazabicyclo[3.1.1]heptan-3-yl)pyridin-3-yl)-6-methyl-N-(5-methyl-1H-pyrazol-3-yl)pyrimidin-4-amine]: at RET-M918T (setting [1]), the inhibition at 0.1 µM came to 69%. Also, the inhibition at 1 µM at VEGFR2 (1000 nM) worked out at 52%.
The term IC50 denotes the concentration that gives 50% inhibition. With `Cc1cc(Nc2cc(C)[nH]n2)nc(-c2ccc(N3CC4CC(C3)N4Cc3ccc(Cl)cn3)nc2)n1` [Compound 69, 2-(6-(6-((5-chloropyridin-2-yl)methyl)-3,6-diazabicyclo[3.1.1]heptan-3-yl)pyridin-3-yl)-6-methyl-N-(5-methyl-1H-pyrazol-3-yl)pyrimidin-4-amine], the IC50 on RET-M918T (read-out: The IC50 (nM) for inhibiting the enzyme RET-M918T) was determined as 8.6 ± 1.46 nM; on RET-CCDC6, 11 ± 9.65 nM. Besides, the inhibition at 0.01 µM at RET-V804M amounted to 56%. The inhibition at 0.1 µM on VEGFR2 (100 nM) amounted to 2%.
As for `Cc1cc(Nc2cc(C)[nH]n2)nc(-c2ccc(N3CC4CC(C3)N4Cc3ccc(-c4ccn[nH]4)nc3)nc2)n1` [Compound 132, 2-(6-(6-((6-(1H-pyrazol-5-yl)pyridin-3-yl)methyl)-3,6-diazabicyclo[3.1.1]heptan-3-yl)pyridin-3-yl)-6-methyl-N-(5-methyl-1H-pyrazol-3-yl)pyrimidin-4-amine], the inhibition at 0.01 µM at RET-V804M came out at 84%. Further, the inhibition at 0.03 µM on VEGFR2 was 31%.
For the compound `Cc1cc(Nc2cc(C)[nH]n2)nc(-c2ccc(N3CC4CC(C3)N4Cc3ccc(-c4ccc(C)o4)nc3)nc2)n1` [Compound 133, 6-methyl-N-(5-methyl-1H-pyrazol-3-yl)-2-(6-(6-((6-(5-methylfuran-2-yl)pyridin-3-yl)methyl)-3,6-diazabicyclo[3.1.1]heptan-3-yl)pyridin-3-yl)pyrimidin-4-amine], the inhibition at 0.01 µM on RET-V804M was determined as 82%. Further, the inhibition at 0.05 µM at VEGFR2 (50 nM) was 28%.
Take `Cc1cc(Nc2cc(C)[nH]n2)nc(-c2ccc(N3CC4CC(C3)N4Cc3ccc(-c4cnn(C(C)C)c4)nc3)nc2)n1` [Compound 135, 2-(6-(6-((6-(1-isopropyl-1H-pyrazol-4-yl)pyridin-3-yl)methyl)-3,6-diazabicyclo[3.1.1]heptan-3-yl)pyridin-3-yl)-6-methyl-N-(5-methyl-1H-pyrazol-3-yl)pyrimidin-4-amine]: the inhibition at 0.01 µM on RET-V804M is 65%. Moreover, the inhibition at 0.1 µM on VEGFR2 (100 nM) came out at 34%.
For `Cc1cc(Nc2cc(C)[nH]n2)nc(-c2ccc(N3CC4CC(C3)N4Cc3ccc(-n4nccc4C(C)(C)O)nc3)nc2)n1` [Compound 136, 2-(1-(5-((3-(5-(4-methyl-6-((5-methyl-1H-pyrazol-3-yl)-amino)pyrimidin-2-yl)pyridin-2-yl)-3,6-diazabicyclo[3.1.1]heptan-6-yl)methyl)pyridin-2-yl)-1H-pyrazol-5-yl)propan-2-ol], the IC50 at RET-V804M (read-out: The IC50 (nM) for inhibiting V804M) worked out at 2.35 ± 0.13 nM. For the same compound, the inhibition at 0.03 µM on VEGFR2 stood at 18%.
Turning to `Cc1cc(Nc2cc(C)[nH]n2)nc(-c2ccc(N3CC4CC(C3)N4Cc3ccc(-n4ccc(CO)n4)nc3)nc2)n1` [Compound 137, (1-(5-((3-(5-(4-methyl-6-((5-methyl-1H-pyrazol-3-yl)-amino)pyrimidin-2-yl)pyridin-2-yl)-3,6-diazabicyclo[3.1.1]heptan-6-yl)methyl)pyridin-2-yl)-1H-pyrazol-3-yl)methanol], at RET-V804M, the inhibition at 0.01 µM came to 93%. The inhibition at 0.03 µM on VEGFR2 was 26%.
